ChEMBL document CHEMBL5053505, “Rational Remodeling of Atypical Scaffolds for the Design of Photoswitchable Cannabinoid Receptor Tools” (J Med Chem, 2021)
Active and inactive are the calls of the source. The rule behind the calls is not given here.

Legend:
Cannabinoid receptor 2 [1] = molecular target: T1, Cannabinoid receptor 2 (Homo sapiens, UniProt P34972); assay: Antagonist activity at human CB2 Receptor expressed in CHO cell membranes measured after 24 hrs by HTRF assay; format: functional, Cell membrane
T1 sequence (P34972 whole entry): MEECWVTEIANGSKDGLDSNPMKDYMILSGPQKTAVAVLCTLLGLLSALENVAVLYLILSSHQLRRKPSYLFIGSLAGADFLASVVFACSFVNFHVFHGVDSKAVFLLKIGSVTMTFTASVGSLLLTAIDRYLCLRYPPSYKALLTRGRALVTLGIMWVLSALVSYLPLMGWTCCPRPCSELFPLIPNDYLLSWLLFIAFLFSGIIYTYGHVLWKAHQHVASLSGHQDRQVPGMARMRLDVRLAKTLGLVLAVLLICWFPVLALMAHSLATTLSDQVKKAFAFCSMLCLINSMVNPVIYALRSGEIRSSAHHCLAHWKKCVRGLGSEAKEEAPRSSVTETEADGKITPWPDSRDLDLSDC

Cannabinoid receptor 1 [2] = molecular target: T2, Cannabinoid receptor 1 (Homo sapiens, UniProt P21554); assay: Antagonist activity at human CB1 Receptor expressed in CHO cell membranes measured after 24 hrs by HTRF assay; format: functional, Cell membrane
T2 sequence (P21554 whole entry): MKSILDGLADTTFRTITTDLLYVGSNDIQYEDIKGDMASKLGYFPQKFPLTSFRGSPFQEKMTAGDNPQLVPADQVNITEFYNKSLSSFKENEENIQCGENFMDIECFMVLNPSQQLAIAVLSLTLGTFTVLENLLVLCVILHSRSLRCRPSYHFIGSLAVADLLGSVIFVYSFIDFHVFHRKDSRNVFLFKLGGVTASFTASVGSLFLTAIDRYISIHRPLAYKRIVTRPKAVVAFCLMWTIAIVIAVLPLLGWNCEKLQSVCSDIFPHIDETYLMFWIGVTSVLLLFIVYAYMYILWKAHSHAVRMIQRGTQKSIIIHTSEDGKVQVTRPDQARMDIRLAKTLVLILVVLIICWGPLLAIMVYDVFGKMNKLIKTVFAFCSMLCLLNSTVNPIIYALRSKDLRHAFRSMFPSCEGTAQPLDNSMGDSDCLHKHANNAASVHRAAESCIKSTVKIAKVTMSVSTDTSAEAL

Cannabinoid receptor 2 [3] = molecular target: T1, Cannabinoid receptor 2; assay: Antagonist activity at human CB2 Receptor expressed in CHO-K1 cells assessed as reduction in CP55940-induced ERK1/2 phosphorylation measured Western blot analysis; format: functional, cell-based; conditions: filed as antagonist
Cannabinoid receptor 1 [4] = molecular target: T2, Cannabinoid receptor 1; assay: Antagonist activity at human CB1 Receptor expressed in CHO-K1 cells assessed as reduction in CP55940-induced ERK1/2 phosphorylation measured Western blot analysis; format: functional, cell-based

Cc1c(C(=O)NCCc2ccccc2/N=N/c2ccccc2)nn(CCCCCO)c1-c1ccccc1
IC50 (Cannabinoid receptor 2 [1]): 2.1 µM | IC50 (Cannabinoid receptor 1 [2]): 3.8 µM

Cc1c(C(=O)Nc2ccccc2/N=N/c2ccccc2)nn(CCCCCO)c1-c1ccccc1
IC50 (Cannabinoid receptor 2 [1]): 5.5 µM

Cc1c(C(=O)NCCc2ccccc2/N=N\c2ccccc2)nn(CCCCCO)c1-c1ccccc1
IC50 (Cannabinoid receptor 2 [1]): 0.36 µM | IC50 (Cannabinoid receptor 1 [2]): 1.7 µM

Cc1c(C(=O)Nc2cccc(/N=N\c3ccccc3)c2)nn(CCCCCO)c1-c1ccccc1
IC50 (Cannabinoid receptor 2 [1]): 0.41 µM | IC50 (Cannabinoid receptor 1 [2]): 2.4 µM

Cc1c(C(=O)NCCCc2ccccc2/N=N/c2ccccc2)nn(CCCCCO)c1-c1ccccc1
IC50 (Cannabinoid receptor 2 [1]): 3.4 µM | IC50 (Cannabinoid receptor 1 [2]): 9 µM

Cc1c(C(=O)NCc2cccc(/N=N\c3ccccc3)c2)nn(CCCCCO)c1-c1ccccc1
IC50 (Cannabinoid receptor 2 [1]): 7 µM | IC50 (Cannabinoid receptor 1 [2]): 5.8 µM

Cc1c(C(=O)NCc2ccccc2/N=N/c2ccccc2)nn(CCCCCO)c1-c1ccccc1
IC50 (Cannabinoid receptor 2 [1]): 3.2 µM | IC50 (Cannabinoid receptor 1 [2]): 1.6 µM | Activity (Cannabinoid receptor 2 [3]): Active | Activity (Cannabinoid receptor 1 [4]): inactive

Cc1c(C(=O)NCCc2cccc(/N=N/c3ccccc3)c2)nn(CCCCCO)c1-c1ccccc1
IC50 (Cannabinoid receptor 2 [1]): 6.5 µM | IC50 (Cannabinoid receptor 1 [2]): 5.9 µM

Cc1c(C(=O)NCCc2cccc(/N=N\c3ccccc3)c2)nn(CCCCCO)c1-c1ccccc1
IC50 (Cannabinoid receptor 2 [1]): 1.6 µM | IC50 (Cannabinoid receptor 1 [2]): 3.3 µM

Cc1c(C(=O)NCCc2ccc(/N=N/c3ccccc3)cc2)nn(CCCCCO)c1-c1ccccc1
IC50 (Cannabinoid receptor 1 [2]): 7.9 µM

Cc1c(C(=O)NCc2ccc(/N=N\c3ccccc3)cc2)nn(CCCCCO)c1-c1ccccc1
IC50 (Cannabinoid receptor 2 [1]): 6.9 µM | IC50 (Cannabinoid receptor 1 [2]): 4.1 µM

Cc1c(C(=O)NCCCc2cccc(/N=N\c3ccccc3)c2)nn(CCCCCO)c1-c1ccccc1
IC50 (Cannabinoid receptor 2 [1]): 1.1 µM | IC50 (Cannabinoid receptor 1 [2]): 3.8 µM

Cc1c(C(=O)NCCCc2ccc(/N=N\c3ccccc3)cc2)nn(CCCCCO)c1-c1ccccc1
IC50 (Cannabinoid receptor 2 [1]): 3.5 µM | IC50 (Cannabinoid receptor 1 [2]): 5.4 µM

Cc1c(C(=O)NCc2ccccc2/N=N\c2ccccc2)nn(CCCCCO)c1-c1ccccc1
IC50 (Cannabinoid receptor 2 [1]): 0.07 µM | IC50 (Cannabinoid receptor 1 [2]): 1.1 µM | Activity (Cannabinoid receptor 2 [3]): Active | Activity (Cannabinoid receptor 1 [4]): inactive

Cc1c(C(=O)NCCCc2ccc(/N=N/c3ccccc3)cc2)nn(CCCCCO)c1-c1ccccc1
IC50 (Cannabinoid receptor 1 [2]): 7.2 µM

Cc1c(C(=O)Nc2ccc(/N=N\c3ccccc3)cc2)nn(CCCCCO)c1-c1ccccc1
IC50 (Cannabinoid receptor 2 [1]): 9 µM

Cc1c(C(=O)NCc2ccc(/N=N/c3ccccc3)cc2)nn(CCCCCO)c1-c1ccccc1
IC50 (Cannabinoid receptor 1 [2]): 8.3 µM

Cc1c(C(=O)NCCCc2ccccc2/N=N\c2ccccc2)nn(CCCCCO)c1-c1ccccc1
IC50 (Cannabinoid receptor 2 [1]): 1.3 µM | IC50 (Cannabinoid receptor 1 [2]): 3.9 µM

Cc1c(C(=O)NCCCc2cccc(/N=N/c3ccccc3)c2)nn(CCCCCO)c1-c1ccccc1
IC50 (Cannabinoid receptor 2 [1]): 3.7 µM | IC50 (Cannabinoid receptor 1 [2]): 4.8 µM

Cc1c(C(=O)Nc2ccccc2/N=N\c2ccccc2)nn(CCCCCO)c1-c1ccccc1
IC50 (Cannabinoid receptor 2 [1]): 0.62 µM

Cc1c(C(=O)NCc2cccc(/N=N/c3ccccc3)c2)nn(CCCCCO)c1-c1ccccc1
IC50 (Cannabinoid receptor 1 [2]): 9.4 µM

Cc1c(C(=O)Nc2cccc(/N=N/c3ccccc3)c2)nn(CCCCCO)c1-c1ccccc1
IC50 (Cannabinoid receptor 2 [1]): 1.5 µM | IC50 (Cannabinoid receptor 1 [2]): 6.2 µM

Cc1c(C(=O)NCCc2ccc(/N=N\c3ccccc3)cc2)nn(CCCCCO)c1-c1ccccc1
IC50 (Cannabinoid receptor 2 [1]): 5.2 µM | IC50 (Cannabinoid receptor 1 [2]): 3.3 µM
